From paper PMC11111408, “Concurrent inhibition of oncogenic and wild-type RAS-GTP for cancer therapy” (Nature, 2024) come the findings set out here.

Each structure is given as a SMILES string.

Experiment [1] has as its target KRAS^G12A (Homo sapiens, UniProt P01116+P62937, G12A). As to the kind of experiment: Cellular RAS–CYPA binding (tri-complex formation), nano-BRET in U2OS cells. It counts as cell-based. Further details: expressed in transfected cells; host or cells: U2OS or U2OS PPIA-KO. As to conditions: (95% CI). From the text:
(§1) KRAS4B, or other small GTPases, containing the indicated mutations were cloned in pNLF-N or pHTN plasmids for expression with an N-terminal nanoluciferase or HaloTag fusion, respectively. […] The following day, the cells were collected by Trypsin and reseeded in a white tissue culture-treated 96-well plate in OptiMem phenol red-free medium (Gibco) containing 4% FBS and a 1:1,000 dilution of NanoBRET 618 HaloTag ligand (Promega). For endpoint concentration response curves, vivazine nanoluciferase substrate was added to 1× concentration in OptiMem phenol red-free medium with 4% FBS. Varying concentrations of inhibitor were added and incubated for 1 or 4 h before the nano-BRET signal was measured on a Perkin Elmer Envision plate reader. For kinetic assays, endurazine nanoluciferase substrate was used in place of vivazine, and the plate was placed in a Cytation5 multi-mode reader pre-equilibrated to 37 °C and 5% CO2.
In general terms: Bioluminescence resonance energy transfer reports proximity on the nanometre scale.

Experiment [2] addresses KRAS^Q61H (Homo sapiens, UniProt P01116+P62937, Q61H). The description is as above. It counts as cell-based. The arrangement: expressed in transfected cells; host or cells: U2OS or U2OS PPIA-KO. As to conditions: (95% CI).
Description: as §1

Experiment [3] deals with KRAS^G12D PDAC cell lines. Description: Western blot time course of RAS signalling in KRAS^G12D PDAC cell lines. As to conditions: KRAS^G12D PDAC cells in culture, 2 h to 48 h. It counts as cell-based, human. On the procedure: Total ERK and vinculin were used as loading controls. […] Source Data
Cells were lysed with MSD Tris Lysis Buffer (MSD, R60TX-2) or a buffer of 1% Triton X-100, 20 mM Tris-HCl, 150 mM NaCl, and 1 mM EDTA, both supplemented with protease and phosphatase inhibitors. Lysates were cleared by centrifugation and quantified by BCA assay (Pierce, 23225). […] Image Studio Lite (Version 5.2.5) and Image Lab (Version 6.1.0 build 7) software were used for data analysis.
(A western blot detects proteins with antibodies after separation by electrophoresis.)

For the compound `CCn1c(-c2cc(N3CCN(C4CC4)CC3)cnc2[C@H](C)OC)c2c3cc(ccc31)-c1csc(n1)C[C@H](NC(=O)[C@H]1[C@@H]3COC[C@@H]31)C(=O)N1CCC[C@H](N1)C(=O)OCC(C)(C)C2` [RMC-7977], the figures for the EC50 in experiment [1] and in experiment [2] were 4.91 nM and 5.75 nM, respectively. Also, in experiment [3], the “pERK suppression over time” value is recorded as “sustained pERK suppression”.
